Measured values reported in US20260048046A1, “METHOD FOR IMPROVING GROWTH PERFORMANCE IN FEEDLOT CATTLE” (Elanco US Inc., priority 2022, published 2026).

Tested on: beef feedlot cattle
Experiment: 56-d study: growth performance
Type: in vivo
Set-up: Average daily dry matter (DMI) / Average daily dry matter (DMI), difference from control: unit not given here
Conditions: for Average daily dry matter (DMI) / Average daily gain (ADG) / Gain:feed, ADG:DMI / Final BW: 56 d treatment, steers, LS mean; for Final BW: initial weight as covariate
Procedure: This example describes a randomized complete block study that evaluated LUB dose (0, 1.5, 3.5, and 5.5 mg kg^−1 dry matter) during the last 56 d of the feeding period on live weight, carcass weight, and associated ratios in beef feedlot cattle. Carcass characteristics, mobility, and health were also evaluated. All cattle received monensin and tylosin throughout the study.
A randomized complete block design was used to evaluate the effects of LUB on calculated growth performance of 2,880 British and Continental European crossbred steers typical for U.S. feedlots. Bos indicus breeding was limited to less than ⅛. The study evaluated four
LUB doses: 0 (control, CON), 1.5, 3.5, and 5.5 mg·kg^−1 DM. There were 12 blocks, each block containing four replicate pens that started LUB feeding on the same date. Steers were randomized within each block of four pens with 60 steers per pen, resulting in a total of 720 steers enrolled in each treatment. LUB feeding started on Jun. 24, 2018, Jul. 1, 2018, and Jul. 15, 2018, four blocks on each date.
Beginning no later than approximately d −70, animals were fed a diet containing Rumensin (monensin 46.3 mg·kg^−1 100% DM basis; Elanco, Greenfield, IN, USA) and Tylan (tylosin 8.9 mg·kg^−1 100% DM basis; Elanco) ad libitum. Cattle in the LUB treatments were switched from the basal finishing ration to the finishing ration containing the appropriate concentrations of LUB Type A premix at the start of the treatment period (d −57). Table 5 lists the composition and the formulated nutrient composition of the finishing diet. The diet was designed to meet or exceed the minimum nutrient requirements cited in Nutrient Requirements of Beef Cattle (NASEM, 2016). LUB was delivered to the cattle using a 1% LUB Type A premix prepared and delivered by Elanco (Clinton Laboratories, Clinton, IN, USA), and the ration was prepared on-site at the research facility. The 1% Type A premix was delivered into the ration by flushing the 1% Type A premix through a micro-ingredient machine (Micro Technologies, Amarillo, TX) with water, which was included at approximately 27 kg of the “as-fed” ration, for each 3,629 kg batch. The 1% Type A premix was included in the finishing ration at 0, 0.0154%, 0.0353%, or 0.0551% (100% DM) to provide CON, 1.5, 3.5, or 5.5 mg·kg^−1 LUB (100% DM). The on-site feed mixers used to mix (stationary horizontal paddle mixer [Cactus Varied Industries, Amarillo, TX, USA]) and deliver (Roto-Mix 490-14 and Roto-Mix 620-16, Roto-Mix LLC, Dodge City, KS) the Type C feed were qualified to confirm that the ration could be mixed homogeneously before feeding medicated feed. Cattle were fed in order of CON, 1.5, 3.5, or 5.5 mg·kg^−1 doses of LUB. Prior to mixing the CON batches, the mixer was flushed with appropriate amount of non-medicated feed or other cattle feed to assure no carryover of test compound. Feed was issued three times each day at approximately the same time each day. Bunk calls were made at the time of first feeding and amount of feed issued for the third feeding was adjusted based on daily bunk calls according to site procedures. The feeding goal was to have slick bunks prior to the first feeding and approximately ⅓ of the cattle at the bunk, ⅓ of the cattle moving to the bunk, and ⅓ of the cattle not moving to the bunk at time of first feeding. Water was available ad libitum throughout the study. The weight of feed issued was recorded and electronic feed records were provided for data analysis.
Animals were weighed individually at the time of randomization (approximately d −69 to d −66) and this weight was used to exclude steers with extreme BW from the trial. All other BW (unshrunk) were collected by pen and used for calculation of growth performance. Scheduled pen weights were taken prior to feed delivery and collected on d −59 (2 d before treatment start, which was considered the treatment start weight) and d 0 (1 d after the end of treatment, which was considered the treatment end weight). […]

[1] = steers fed LUB (doses pooled), 56 d

How did the “Average daily dry matter (DMI), difference from control” value (1.5 mg·kg^−1 vs. control, 56 d) turn out when CC(C)(Cc1ccc(Oc2ncccc2C#N)cc1)NC[C@H](O)COc1ccccc1-c1cccs1 [LUB, 2-{4-[2-({(2S)-2-Hydroxy-3-[2-(2-thienyl)phenoxy]propyl}amino)-2-methylpropyl]phenoxy}nicotinonitrile] was run?
The value was 0.2.

What about the “Average daily dry matter (DMI), percent change from Control” value (1.5 mg·kg^−1 vs. control, 56 d) of the same compound?
Its value is 2.0%.

What about the “Average daily gain (ADG), difference from control” value (1.5 mg·kg^−1 vs. control, 56 d) of the same compound?
Its value is 0.19 kg.

What about the “Average daily gain (ADG), percent change from Control” value (1.5 mg·kg^−1 vs. control, 56 d) of the same compound?
Its value is 11.3%.

What about the “Final BW, difference from control” value (1.5 mg·kg^−1 vs. control, 56 d) of the same compound?
The value was 11.6 kg.

What about the “Final BW, percent change from Control” value (1.5 mg·kg^−1 vs. control, 56 d) of the same compound?
The value was 1.7%.

And the “Gain:feed, ADG:DMI, difference from control” value (from here on “Gain:feed, ADG:DMI, difference”) (1.5 mg·kg^−1 vs. control, 56 d)?
Its value is 0.015.

What about the “Gain:feed, ADG:DMI, percent change from Control” value (1.5 mg·kg^−1 vs. control, 56 d) of the same compound?
Its value is 9.0%.

What about the “Average daily dry matter (DMI), difference from control” value (3.5 mg·kg^−1 vs. control, 56 d) of the same compound?
Its value is 0.3.

And the “Average daily dry matter (DMI), percent change from Control” value (3.5 mg·kg^−1 vs. control, 56 d)?
Its value is 3.0%.

What about the “Average daily gain (ADG), difference from control” value (3.5 mg·kg^−1 vs. control, 56 d) of the same compound?
The value was 0.26 kg.

What about the “Average daily gain (ADG), percent change from Control” value (3.5 mg·kg^−1 vs. control, 56 d) of the same compound?
Its value is 15.5%.

And the “Final BW, difference from control” value (3.5 mg·kg^−1 vs. control, 56 d)?
The value was 15.7 kg.

What about the “Final BW, percent change from Control” value (3.5 mg·kg^−1 vs. control, 56 d) of the same compound?
The value was 2.4%.

And the “Gain:feed, ADG:DMI, difference” value (3.5 mg·kg^−1 vs. control, 56 d)?
The value was 0.028.

And the “Gain:feed, ADG:DMI, percent change from Control” value (3.5 mg·kg^−1 vs. control, 56 d)?
Its value is 12.0%.

And the “Average daily dry matter (DMI), difference from control” value (5.5 mg·kg^−1 vs. control, 56 d)?
Its value is 0.2.

What about the “Average daily dry matter (DMI), percent change from Control” value (5.5 mg·kg^−1 vs. control, 56 d) of the same compound?
The value was 2.0%.

And the “Average daily gain (ADG), difference from control” value (5.5 mg·kg^−1 vs. control, 56 d)?
Its value is 0.24 kg.

And the “Average daily gain (ADG), percent change from Control” value (5.5 mg·kg^−1 vs. control, 56 d)?
Its value is 14.3%.

And the “Final BW, difference from control” value (5.5 mg·kg^−1 vs. control, 56 d)?
The value was 14.3 kg.

And the “Final BW, percent change from Control” value (5.5 mg·kg^−1 vs. control, 56 d)?
Its value is 2.1%.

And the “Gain:feed, ADG:DMI, difference” value (5.5 mg·kg^−1 vs. control, 56 d)?
The value was 0.019.

And the “Gain:feed, ADG:DMI, percent change from Control” value (5.5 mg·kg^−1 vs. control, 56 d)?
The value was 11.4%.

What about the “Average daily dry matter (DMI)” value (LUB 1.5 mg·kg^−1 DM) of the same compound?
Its value is 10.3.

And the “Average daily gain (ADG)” value (LUB 1.5 mg·kg^−1 DM)?
The value was 1.87 kg.

What about the “Gain:feed, ADG:DMI” value (LUB 1.5 mg·kg^−1 DM) of the same compound?
The value was 0.182.

And the “Final BW” value (LUB 1.5 mg·kg^−1 DM)?
Its value is 679.0 kg.

And the “Average daily dry matter (DMI)” value (LUB 3.5 mg·kg^−1 DM)?
Its value is 10.4.

What about the “Average daily gain (ADG)” value (LUB 3.5 mg·kg^−1 DM) of the same compound?
Its value is 1.94 kg.

And the “Gain:feed, ADG:DMI” value (LUB 3.5 mg·kg^−1 DM)?
The value was 0.187.

And the “Final BW” value (LUB 3.5 mg·kg^−1 DM)?
Its value is 683.1 kg.

And the “Average daily dry matter (DMI)” value (LUB 5.5 mg·kg^−1 DM)?
Its value is 10.3.

What about the “Average daily gain (ADG)” value (LUB 5.5 mg·kg^−1 DM) of the same compound?
Its value is 1.92 kg.

What about the “Gain:feed, ADG:DMI” value (LUB 5.5 mg·kg^−1 DM) of the same compound?
Its value is 0.186.

And the “Final BW” value (LUB 5.5 mg·kg^−1 DM)?
Its value is 681.7 kg.

And the Average daily gain [1]?
The Average daily gain was 1.91 kg.

What about the “Average daily gain greater than control” value [1] of the same compound?
Its value is 13.7%.

And the Gain efficiency [1]?
The Gain efficiency was 0.185.

And the “Gain efficiency greater than control” value [1]?
Its value is 10.8%.

And the “Daily dry matter intake greater than control” value (steers that received LUB (doses pooled), 56 d)?
Its value is 2.3%.
